Source: US4061760A, “Method for using 3-substituted-5-phenyl-5-pyridyl hydantoins as antiarrhythmic agents” (priority 1976, dated 1977)

Tests used:
in vivo [1] = conditions: ip
Excerpt: LD50 data were obtained by standard procedures known to the art.

[2] = tested on: ventricular rate and rhythm; assay: animal or person; format: in vivo; conditions: for ED50: Mus musculus, ip, 10 min, read-out: ED50 (95% CL)
Protocol: (§1) The test compounds were administered in varying intraperitoneal doses to groups consisting of 5 mice. Ten minutes after administration of a given dose of a compound, a mouse was transferred to a covered 300 ml glass beaker that contained a wad of cotton saturated with about 20 ml of chloroform. The animal was observed closely and removed from the beaker immediately after respiratory arrest. The heart was quickly exposed by making an incision through the abdomen, diaphragm, thorax and pericardium for visual inspection of ventricular rate and rhythm. Ventricular contractions were counted for 30 seconds. According to the procedure reported by Lawson, animals with ventricular rate not exceeding 100 contractions during the 30 second observation period were considered protected.

in vivo [3] = format: in vivo; conditions: mouse, in vivo, ip; LD50 and ED50 in mg/kg, i.p.; read-out: Therapeutic index
Protocol: as §1

[4] = cited from earlier work; for side effects / toxicity (in words): background
[5] = Casagrande, quoted; cited from earlier work

Structure (SMILES)	LD50 (in vivo [1]) [mg/kg]	ED50 [2] [mg/kg]	selectivity ratio (in vivo [3])	also measured
O=C1NC(c2ccccc2)(c2ccccn2)C(=O)N1CCCN1CCC(O)(c2ccccc2)CC1 (stereo not shown) [Example 2, 3-[3-(4-hydroxy-4-phenyl-1-piperidyl)propyl]-5-phenyl-5-(2-pyridyl)hydantoin]	65	19.2	3.4	
C=C[C@H]1C[N@@]2CC[C@H]1C[C@@H]2[C@@H](O)c1ccnc2ccc(OC)cc12 [I, quinidine]				side effects / toxicity (in words) [4]: relatively toxic
O=C1NC(=O)C(c2ccccc2)(c2ccccc2)N1 [DPH, 5,5-diphenyl-2,4-imidazolidinedione]				side effects / toxicity (in words) [4]: dizziness, nausea, emesis, nystimus, and ataxia; side effects at large doses (in words) ([4]; large doses): atrio-ventricular blockage, bradycardia, or even cardiac arrest
O=C1NC(=O)C(c2ccccc2)(c2ccncc2)N1 (stereo not shown) [VII, 5-phenyl-5-(4-pyridyl)hydantoin]	240	205	1.17	
O=C1NC(c2ccccc2)(c2cccnc2)C(=O)N1CCCN1CCC(c2ccccc2)CC1 (stereo not shown) [Example 4, 3-[3-(4-phenyl-1-piperidyl)propyl]-5-phenyl-5-(3-pyridyl)-hydantoin]	156	31	5	
O=C1NC(c2ccccc2)(c2ccncc2)C(=O)N1CCCN1CCC(c2ccccc2)CC1 (stereo not shown) [Example 5, 3-[3-(4-phenyl-1-piperidyl)propyl]-5-phenyl-5-(4-pyridyl)hydantoin]	61	28	2.1	
CN(C)CCN1C(=O)NC(c2ccccc2)(c2cccnc2)C1=O (stereo not drawn) [compound XXV, 3-(2-dimethylamino-ethyl)-5-phenyl-5β-pyridyl-hydantoin]				therapeutic index clearly superior to that of quinidine (in words) [5]: had not been fulfilled
O=C1NC(c2ccccc2)(c2ccccn2)C(=O)N1CCCN1CCC(c2ccccc2)CC1 (stereo not shown) [Example 1, 3-[3-(4-phenyl-1-piperidyl)propyl]-5-phenyl-5-(2-pyridyl)hydantoin]	136	15.3	9	
O=C1NC(=O)C(c2ccccc2)(c2cccnc2)N1 (stereo not shown) [VI, 5-phenyl-5-(3-pyridyl)hydantoin]		> 310		mice protected ([2]; at 310 mg/kg, i.p.): 2 of 5
CC(CN(C)C)CN1C(=O)NC(c2ccccc2)(c2cccnc2)C1=O (stereo not drawn) [compound XXX, 3-(2-methyl-3-dimethylamino-propyl)-5-phenyl-5β-pyridyl-hydantoin]				therapeutic index clearly superior to that of quinidine (in words) [5]: had not been fulfilled
O=C1NC(=O)C(c2ccccc2)(c2ccccn2)N1 (stereo not shown) [V, 5-phenyl-5-(2-pyridyl)hydantoin]	186	160	1.16	
